pEC50, pIC50: −log10 of the molar value.
How the values were obtained:
P2X purinoceptor 6 = P2X purinoceptor 6 (Rattus norvegicus, UniProt P51579); assay: Antagonist activity against recombinant rat P2X purinoceptor 6 (P2X6 ); assay type: functional
P2X purinoceptor 7 = molecular target: T1, P2X purinoceptor 7 (Homo sapiens, UniProt Q99572); assay: Antagonist activity against recombinant human P2X purinoceptor 7 (P2X7); assay type: functional
T1 sequence (Q99572 whole entry): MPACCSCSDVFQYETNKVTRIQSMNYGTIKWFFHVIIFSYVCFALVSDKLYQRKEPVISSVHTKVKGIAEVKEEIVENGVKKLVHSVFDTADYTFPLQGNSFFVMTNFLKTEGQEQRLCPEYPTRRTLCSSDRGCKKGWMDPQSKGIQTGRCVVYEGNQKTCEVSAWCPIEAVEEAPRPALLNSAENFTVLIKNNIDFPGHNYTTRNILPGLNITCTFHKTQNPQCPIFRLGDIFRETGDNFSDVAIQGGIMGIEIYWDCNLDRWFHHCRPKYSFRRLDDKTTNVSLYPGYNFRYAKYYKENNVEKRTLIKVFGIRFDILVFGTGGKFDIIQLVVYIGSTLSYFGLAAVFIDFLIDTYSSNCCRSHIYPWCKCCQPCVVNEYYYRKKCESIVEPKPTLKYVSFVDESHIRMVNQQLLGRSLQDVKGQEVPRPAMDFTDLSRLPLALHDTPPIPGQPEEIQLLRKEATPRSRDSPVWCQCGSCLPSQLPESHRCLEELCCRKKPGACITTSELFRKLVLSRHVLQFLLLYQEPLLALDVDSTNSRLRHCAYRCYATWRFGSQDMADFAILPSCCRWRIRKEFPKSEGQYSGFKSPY

P2X purinoceptor 5 = molecular target: T2, P2X purinoceptor 5 (Rattus norvegicus, UniProt P51578); assay: Antagonist activity against recombinant rat P2X purinoceptor 5 (P2X5); assay type: functional
T2 sequence (P51578 whole entry): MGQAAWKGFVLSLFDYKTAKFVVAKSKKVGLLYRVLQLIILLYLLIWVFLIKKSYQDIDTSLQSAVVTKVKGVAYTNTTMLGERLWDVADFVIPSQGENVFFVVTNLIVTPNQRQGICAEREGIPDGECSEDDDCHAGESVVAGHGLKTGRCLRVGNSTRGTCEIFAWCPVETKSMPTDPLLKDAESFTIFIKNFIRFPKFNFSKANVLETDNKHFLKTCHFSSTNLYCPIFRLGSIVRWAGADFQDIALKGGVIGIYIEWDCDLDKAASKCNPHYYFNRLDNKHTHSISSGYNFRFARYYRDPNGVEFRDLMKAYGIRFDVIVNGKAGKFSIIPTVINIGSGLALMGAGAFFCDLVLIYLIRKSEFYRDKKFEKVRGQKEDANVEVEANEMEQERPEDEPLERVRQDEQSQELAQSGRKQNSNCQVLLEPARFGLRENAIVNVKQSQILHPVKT

P2X purinoceptor 2 = molecular target: T3, P2X purinoceptor 2 (Rattus norvegicus, UniProt P49653); assay: Antagonist activity against recombinant rat receptor P2X purinoceptor 2 (P2X2) at 10 uM, expressed in Xenopus oocytes; assay type: functional, cell-based, Oocyte
T3 sequence (P49653 whole entry): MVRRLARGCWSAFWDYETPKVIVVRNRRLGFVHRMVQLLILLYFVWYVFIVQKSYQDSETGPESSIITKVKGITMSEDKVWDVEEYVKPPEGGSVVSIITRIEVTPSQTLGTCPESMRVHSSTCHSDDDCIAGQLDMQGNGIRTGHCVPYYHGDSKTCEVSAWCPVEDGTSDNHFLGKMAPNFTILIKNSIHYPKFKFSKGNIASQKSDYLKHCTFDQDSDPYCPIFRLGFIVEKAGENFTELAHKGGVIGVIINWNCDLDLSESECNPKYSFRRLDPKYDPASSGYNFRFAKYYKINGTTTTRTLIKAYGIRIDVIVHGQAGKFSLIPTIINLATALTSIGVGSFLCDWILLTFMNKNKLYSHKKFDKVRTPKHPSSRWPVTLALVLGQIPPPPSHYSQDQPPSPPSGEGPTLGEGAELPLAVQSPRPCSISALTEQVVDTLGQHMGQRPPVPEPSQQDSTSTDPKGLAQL

P2Y purinoceptor 12 = P2Y purinoceptor 12 (Rattus norvegicus, UniProt Q9EPX4); assay: Antagonist activity against phospholipase C coupled rat P2Y purinoceptor 12 (P2Y12); assay type: functional
P2Y purinoceptor 12, sequence (Q9EPX4 whole entry): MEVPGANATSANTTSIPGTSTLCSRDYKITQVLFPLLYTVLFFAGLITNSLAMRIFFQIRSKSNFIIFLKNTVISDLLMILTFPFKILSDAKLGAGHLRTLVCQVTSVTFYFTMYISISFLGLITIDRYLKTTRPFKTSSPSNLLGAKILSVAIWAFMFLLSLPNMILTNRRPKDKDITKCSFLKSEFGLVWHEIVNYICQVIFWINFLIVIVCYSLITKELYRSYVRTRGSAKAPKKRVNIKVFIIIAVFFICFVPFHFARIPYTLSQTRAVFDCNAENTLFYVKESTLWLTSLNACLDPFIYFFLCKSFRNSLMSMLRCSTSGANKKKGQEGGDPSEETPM

P2X purinoceptor 3 = molecular target: T4, P2X purinoceptor 3 (Homo sapiens, UniProt P56373); assay: Antagonist activity against recombinant human P2X purinoceptor 3 (P2X3 ); assay type: functional
T4 sequence (P56373 whole entry): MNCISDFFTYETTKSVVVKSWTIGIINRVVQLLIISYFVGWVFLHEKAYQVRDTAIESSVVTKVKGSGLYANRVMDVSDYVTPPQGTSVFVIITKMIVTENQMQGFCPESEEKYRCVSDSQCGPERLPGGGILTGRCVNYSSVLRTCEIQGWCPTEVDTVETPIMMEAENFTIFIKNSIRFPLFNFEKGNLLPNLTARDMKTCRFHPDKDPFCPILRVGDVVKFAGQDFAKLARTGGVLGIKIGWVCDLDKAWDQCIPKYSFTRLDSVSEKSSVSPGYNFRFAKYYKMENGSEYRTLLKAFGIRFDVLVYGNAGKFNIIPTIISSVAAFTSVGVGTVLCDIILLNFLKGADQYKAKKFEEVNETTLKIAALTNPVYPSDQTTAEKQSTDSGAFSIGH

P2X purinoceptor 4 [1] = molecular target: T5, P2X purinoceptor 4 (Rattus norvegicus, UniProt P51577); assay: Antagonist activity against recombinant rat P2X purinoceptor 4 (P2X4) at 30 uM, expressed in Xenopus oocytes; assay type: functional, cell-based, Oocyte
T5 sequence (P51577 whole entry): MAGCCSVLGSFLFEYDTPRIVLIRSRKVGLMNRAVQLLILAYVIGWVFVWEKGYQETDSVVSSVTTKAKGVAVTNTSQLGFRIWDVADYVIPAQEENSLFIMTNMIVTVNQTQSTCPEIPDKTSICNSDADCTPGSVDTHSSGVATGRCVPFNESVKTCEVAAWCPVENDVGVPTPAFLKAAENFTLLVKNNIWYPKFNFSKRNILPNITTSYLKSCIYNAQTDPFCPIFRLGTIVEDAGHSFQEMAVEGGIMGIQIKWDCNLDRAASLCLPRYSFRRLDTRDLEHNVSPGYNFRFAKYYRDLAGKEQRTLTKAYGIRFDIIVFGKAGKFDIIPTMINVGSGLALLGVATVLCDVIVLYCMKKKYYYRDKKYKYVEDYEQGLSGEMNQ

P2Y purinoceptor 1 [2] = molecular target: P2Y purinoceptor 1 (Meleagris gallopavo, UniProt P49652); assay: Evaluated for agonist activity against phospholipase C coupled P2Y purinoceptor 1 (P2Y1) of turkey erythrocytes; assay type: functional
P2Y purinoceptor 1 (Meleagris gallopavo, UniProt P49652), sequence (P49652 whole entry): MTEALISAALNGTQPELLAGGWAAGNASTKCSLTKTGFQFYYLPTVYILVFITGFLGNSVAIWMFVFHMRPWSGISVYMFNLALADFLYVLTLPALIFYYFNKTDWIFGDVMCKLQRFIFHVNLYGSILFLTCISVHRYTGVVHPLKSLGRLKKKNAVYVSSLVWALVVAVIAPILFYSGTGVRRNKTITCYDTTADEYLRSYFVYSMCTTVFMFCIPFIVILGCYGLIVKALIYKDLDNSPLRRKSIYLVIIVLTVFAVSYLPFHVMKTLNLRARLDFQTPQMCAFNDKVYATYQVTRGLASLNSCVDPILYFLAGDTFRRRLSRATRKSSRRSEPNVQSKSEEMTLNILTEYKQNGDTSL

P2X purinoceptor 1 = molecular target: T6, P2X purinoceptor 1 (Homo sapiens, UniProt P51575); assay: Antagonist activity against recombinant human P2X purinoceptor 1 (P2X1 ); assay type: functional
T6 sequence (P51575 whole entry): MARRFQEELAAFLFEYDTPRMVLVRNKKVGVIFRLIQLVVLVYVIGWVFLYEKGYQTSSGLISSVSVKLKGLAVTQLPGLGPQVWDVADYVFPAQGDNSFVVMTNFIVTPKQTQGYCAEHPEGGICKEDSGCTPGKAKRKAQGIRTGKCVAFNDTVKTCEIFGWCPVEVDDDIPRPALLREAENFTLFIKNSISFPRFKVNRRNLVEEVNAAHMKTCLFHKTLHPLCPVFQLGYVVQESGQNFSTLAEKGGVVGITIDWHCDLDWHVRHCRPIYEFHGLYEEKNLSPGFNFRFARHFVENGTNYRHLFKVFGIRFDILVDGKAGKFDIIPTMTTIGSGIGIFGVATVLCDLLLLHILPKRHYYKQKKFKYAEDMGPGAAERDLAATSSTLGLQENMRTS

P2Y purinoceptor 1 [3] = molecular target: P2Y purinoceptor 1 (Homo sapiens, UniProt P47900); assay: Evaluated for agonist activity against phospholipase C coupled P2Y purinoceptor 1 (P2Y1) of human erythrocytes; assay type: functional
P2Y purinoceptor 1 (Homo sapiens, UniProt P47900), sequence (P47900 whole entry): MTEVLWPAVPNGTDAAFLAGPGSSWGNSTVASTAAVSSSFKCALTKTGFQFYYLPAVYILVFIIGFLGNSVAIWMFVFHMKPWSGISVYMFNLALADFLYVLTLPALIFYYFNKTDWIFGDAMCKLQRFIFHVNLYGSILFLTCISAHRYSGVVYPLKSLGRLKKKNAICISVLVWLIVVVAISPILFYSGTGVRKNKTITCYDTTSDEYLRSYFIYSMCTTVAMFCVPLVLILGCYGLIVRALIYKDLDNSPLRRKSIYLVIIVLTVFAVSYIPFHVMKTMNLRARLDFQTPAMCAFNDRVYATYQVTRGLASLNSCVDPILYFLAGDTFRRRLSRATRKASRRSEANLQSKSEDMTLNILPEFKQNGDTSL

P2Y purinoceptor 2 = P2Y purinoceptor 2 (Homo sapiens, UniProt P41231); assay: Evaluated for agonist activity against phospholipase C coupled recombinant human P2Y purinoceptor 2 (P2Y2); assay type: functional
P2Y purinoceptor 2, sequence (P41231 whole entry): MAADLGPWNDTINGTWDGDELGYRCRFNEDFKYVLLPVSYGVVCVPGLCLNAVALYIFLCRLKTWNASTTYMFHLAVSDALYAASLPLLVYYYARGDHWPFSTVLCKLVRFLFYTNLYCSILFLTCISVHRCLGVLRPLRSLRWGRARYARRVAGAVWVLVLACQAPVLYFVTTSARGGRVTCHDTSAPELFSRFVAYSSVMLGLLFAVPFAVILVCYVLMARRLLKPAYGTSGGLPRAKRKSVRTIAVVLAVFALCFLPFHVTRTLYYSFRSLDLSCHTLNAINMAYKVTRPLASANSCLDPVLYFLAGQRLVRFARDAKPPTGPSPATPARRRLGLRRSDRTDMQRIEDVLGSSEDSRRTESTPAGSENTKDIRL

P2Y purinoceptor 11 = molecular target: T7, P2Y purinoceptor 11 (Homo sapiens, UniProt Q96G91); assay: Agonist activity against phospholipase C coupled human P2Y purinoceptor 11 (P2Y11); assay type: functional
T7 sequence (Q96G91 whole entry): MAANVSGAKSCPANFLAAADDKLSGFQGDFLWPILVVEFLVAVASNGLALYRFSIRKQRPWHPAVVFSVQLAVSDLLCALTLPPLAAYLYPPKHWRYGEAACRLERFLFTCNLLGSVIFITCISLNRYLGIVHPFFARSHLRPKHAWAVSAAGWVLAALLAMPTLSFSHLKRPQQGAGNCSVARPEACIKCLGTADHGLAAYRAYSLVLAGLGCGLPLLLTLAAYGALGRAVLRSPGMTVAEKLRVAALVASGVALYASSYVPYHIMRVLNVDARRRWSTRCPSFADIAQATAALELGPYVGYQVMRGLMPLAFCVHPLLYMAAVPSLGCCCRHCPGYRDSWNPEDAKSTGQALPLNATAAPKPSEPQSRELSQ

P2Y purinoceptor 6 = P2Y purinoceptor 6 (Homo sapiens, UniProt Q15077); assay: The compound was evaluated for agonist activity against phospholipase C coupled recombinant human P2Y purinoceptor 6 (P2Y6); assay type: functional
P2Y purinoceptor 6, sequence (Q15077 whole entry): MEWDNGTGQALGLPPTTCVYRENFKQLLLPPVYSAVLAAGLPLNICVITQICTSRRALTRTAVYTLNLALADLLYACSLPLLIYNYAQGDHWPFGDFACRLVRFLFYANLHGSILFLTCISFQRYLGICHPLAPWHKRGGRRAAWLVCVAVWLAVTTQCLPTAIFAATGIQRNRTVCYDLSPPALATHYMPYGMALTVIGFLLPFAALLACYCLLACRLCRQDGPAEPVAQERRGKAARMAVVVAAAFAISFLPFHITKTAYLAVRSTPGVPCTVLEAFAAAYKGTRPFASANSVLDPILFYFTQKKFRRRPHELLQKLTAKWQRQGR

P2Y purinoceptor 4 [4] = molecular target: P2Y purinoceptor 4 (Rattus norvegicus, UniProt O35811); assay: The compound was evaluated for antagonist activity against phospholipase C coupled recombinant rat P2Y purinoceptor 4 (P2Y4); assay type: functional
P2Y purinoceptor 4 (Rattus norvegicus, UniProt O35811), sequence (O35811 whole entry): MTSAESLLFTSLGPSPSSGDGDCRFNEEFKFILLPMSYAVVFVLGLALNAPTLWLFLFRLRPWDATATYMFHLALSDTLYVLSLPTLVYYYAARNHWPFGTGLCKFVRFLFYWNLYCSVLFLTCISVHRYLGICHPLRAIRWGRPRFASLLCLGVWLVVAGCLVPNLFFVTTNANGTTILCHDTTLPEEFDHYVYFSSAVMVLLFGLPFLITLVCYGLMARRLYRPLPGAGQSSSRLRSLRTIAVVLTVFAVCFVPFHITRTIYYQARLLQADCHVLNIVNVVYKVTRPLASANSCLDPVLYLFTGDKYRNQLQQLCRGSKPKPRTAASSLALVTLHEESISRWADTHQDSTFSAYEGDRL

[5] = molecular target: P2X purinoceptor 7 (Homo sapiens) (UniProt Q99572); assay: The compound was evaluated for antagonist activity against recombinant human P2X purinoceptor 7 (P2X7); assay type: functional
P2Y purinoceptor 4 [6] = molecular target: P2Y purinoceptor 4 (Homo sapiens, UniProt P51582); assay: The compound was evaluated for antagonist activity against phospholipase C coupled recombinant human P2Y purinoceptor 4 (P2Y4); assay type: functional
P2Y purinoceptor 4 (Homo sapiens, UniProt P51582), sequence (P51582 whole entry): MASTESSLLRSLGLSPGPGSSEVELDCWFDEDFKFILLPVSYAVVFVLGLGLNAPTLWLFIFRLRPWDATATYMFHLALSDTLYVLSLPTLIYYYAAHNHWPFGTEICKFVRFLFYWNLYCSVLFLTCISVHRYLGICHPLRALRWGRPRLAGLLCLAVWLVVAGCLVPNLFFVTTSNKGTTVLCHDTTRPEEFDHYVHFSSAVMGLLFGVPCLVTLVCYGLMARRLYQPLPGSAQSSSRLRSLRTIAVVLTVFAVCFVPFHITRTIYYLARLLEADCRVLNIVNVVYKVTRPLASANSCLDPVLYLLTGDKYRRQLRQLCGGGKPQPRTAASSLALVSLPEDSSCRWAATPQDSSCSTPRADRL

P2X purinoceptor 4 [7] = molecular target: T5, P2X purinoceptor 4; assay: Antagonist activity against recombinant rat P2X purinoceptor 4 (P2X4) at 3 uM, expressed in Xenopus oocytes; assay type: functional, cell-based, Oocyte

P2X purinoceptor 6, sequence (P51579 whole entry): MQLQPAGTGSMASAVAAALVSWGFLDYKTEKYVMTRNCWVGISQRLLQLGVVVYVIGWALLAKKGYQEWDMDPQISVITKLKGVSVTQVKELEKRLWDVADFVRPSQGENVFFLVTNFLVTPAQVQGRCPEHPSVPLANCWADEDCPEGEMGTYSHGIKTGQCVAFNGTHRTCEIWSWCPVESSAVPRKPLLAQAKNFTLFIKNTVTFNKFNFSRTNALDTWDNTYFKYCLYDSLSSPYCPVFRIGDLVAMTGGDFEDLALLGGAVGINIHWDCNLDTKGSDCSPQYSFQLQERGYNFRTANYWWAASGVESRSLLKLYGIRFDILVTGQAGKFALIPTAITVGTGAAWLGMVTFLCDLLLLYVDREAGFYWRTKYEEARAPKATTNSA

## Nc1ncnc2c1ncn2[C@@H]1O[C@H](COP(=O)(O)CP(=O)(O)OP(=O)(O)O)[C@@H](O)[C@H]1O [DIPHOSPHOMETHYLPHOSPHONIC ACID ADENOSYL ESTER]
P2X purinoceptor 6
  pEC50: < 5.10
P2X purinoceptor 7
  pEC50: < 4.00
P2X purinoceptor 5
  pEC50: < 5.15
P2X purinoceptor 2
  pEC50: 4.00
P2Y purinoceptor 12
  pEC50: < 4.00
P2X purinoceptor 3
  pEC50: 6.13
P2X purinoceptor 4 [1]
  pEC50: 4.48
P2Y purinoceptor 1 [2]
  pEC50: < 4.00
P2X purinoceptor 1
  pEC50: 6.70

## O=c1ccn([C@@H]2O[C@H](COP(=O)(O)OP(=O)(O)OP(=O)(O)O)[C@@H](O)[C@H]2O)c(=O)[nH]1 [URIDINE TRIPHOSPHATE]
P2Y purinoceptor 1 [3]
  pEC50: < 4.00
P2Y purinoceptor 2
  pEC50: 6.85
P2Y purinoceptor 11
  pEC50: < 4.00
P2Y purinoceptor 6
  pEC50: 5.22
P2Y purinoceptor 4 [4]
  pEC50: 5.59

## CNc1ncnc2c1ncn2[C@H]1C[C@H](OP(=O)(O)O)[C@@H](COP(=O)(O)O)O1
[5]
  pIC50: < 4.52
P2X purinoceptor 2
  pEC50: < 5.00
P2Y purinoceptor 12
  pEC50: < 4.00
P2Y purinoceptor 2
  pEC50: < 4.00
P2Y purinoceptor 6
  pEC50: < 4.00
P2X purinoceptor 1
  pEC50: 5.94
P2Y purinoceptor 4 [6]
  pEC50: < 4.00
P2X purinoceptor 4 [7]
  pEC50: < 5.00
